Columns and labels:
Escherichia coli = test: Antibacterial activity against penicillin-susceptible Escherichia coli ATCC25922 by broth microdilution method; type: functional
[1] = system: Staphylococcus epidermidis; test: Antibacterial activity against erythromycin-susceptible Staphylococcus epidermidis ATCC12228 by broth microdilution assay; type: functional
Klebsiella pneumoniae = test: Antibacterial activity against Klebsiella pneumoniae ATCC10031 by broth microdilution assay; type: functional
Staphylococcus aureus [2] = test: Antibacterial activity against penicillin-resistant Staphylococcus aureus ATCC31007 by broth microdilution assay; type: functional
Staphylococcus aureus [3] = test: Antibacterial activity against penicillin-resistant Staphylococcus aureus ATCC43300 by broth microdilution assay; type: functional
Staphylococcus aureus [4] = test: Antibacterial activity against erythromycin susceptible Staphylococcus aureus ATCC25923 by broth microdilution assay; type: functional
Acinetobacter baumannii = test: Antibacterial activity against Acinetobacter baumannii ATCC19606 by broth microdilution assay; type: functional
[5] = Selectivity index, ratio of HC50 for hemolytic activity in red blood cells (unknown origin) to MIC for antibacterial activity against penicillin-resistant Staphylococcus aureus ATCC43300; type: toxicity, cell-based, RBC; conditions: read-out: Selectivity Index
Pseudomonas aeruginosa = test: Antibacterial activity against penicillin-susceptible Pseudomonas aeruginosa ATCC27853 by broth microdilution method; type: functional
Enterococcus faecalis = test: Antibacterial activity against vancomycin susceptible Enterococcus faecalis ATCC29212 by broth microdilution assay; type: functional
[6] = Hemolytic activity in red blood cells (unknown origin); type: toxicity, cell-based, Erythrocyte
Bacillus subtilis = test: Antibacterial activity against penicillin-susceptible Bacillus subtilis ATCC9372 by broth microdilution assay; type: functional

SMILES | MIC (Escherichia coli) [µg/mL] | MIC [1] [µg/mL] | MIC (Klebsiella pneumoniae) [µg/mL] | MIC (Staphylococcus aureus [2]) [µg/mL] | MIC (Staphylococcus aureus [3]) [µg/mL] | MIC (Staphylococcus aureus [4]) [µg/mL] | MIC (Acinetobacter baumannii) [µg/mL] | selectivity ratio [5] | MIC (Pseudomonas aeruginosa) [µg/mL] | MIC (Enterococcus faecalis) [µg/mL] | HC50 [6] [µg/mL] | MIC (Bacillus subtilis) [µg/mL]
CCCCCCCCCCCCCC[N+](C)(C)CCCOc1ccc(/C=C/C(=O)c2ccc(OCCC[N+](C)(C)CCCCCCCCCCCCCC)cc2)cc1.[Br-].[Br-] | > 128 | > 128 | 128 | 64 | 128 | 64 | 128 | 0.2 | > 128 | > 128 | 28.4 | > 128
CCCCCC[N+](C)(C)CCCCCCCOc1ccc(C(=O)/C=C/c2ccccc2)cc1.[Br-] | > 128 | 2 | 16 | 4 | 4 | 2 | 16 | 15.4 | > 128 | 4 | 61.6 | 2
O=C(/C=C/c1ccccc1)c1ccc(OCCC[n+]2ccc(NC(=O)c3ccc4ccccc4c3)cc2)cc1.[Br-] | > 128 | > 128 | > 128 | > 128 | > 128 | > 128 | > 128 | > 10 | > 128 | > 128 | > 1280 | > 128
CC(C)=CC(=O)Nc1cc[n+](CCCOc2ccc(C(=O)/C=C/c3ccccc3)cc2)cc1.[Br-] | > 128 | > 128 | > 128 | > 128 | > 128 | > 128 | > 128 | > 10 | > 128 | > 128 | > 1280 | > 128
CCCCCCNC(=O)C[N+](C)(C)CCCOc1ccc(/C=C/C(=O)c2ccc(OCCC[N+](C)(C)CC(=O)NCCCCCC)cc2)cc1.[Br-].[Br-] | 2 | 1 | 4 | 1 | 1 | 1 | 32 | 329 | 32 | 2 | 234 | 2
CCCC(=O)Nc1cc[n+](CCCOc2ccc(C(=O)/C=C/c3ccccc3)cc2)cc1.[Br-] | > 128 | > 128 | > 128 | > 128 | > 128 | > 128 | > 128 | > 10 | > 128 | > 128 | > 1280 | > 128
CCCCCC[N+](C)(C)CCCOc1ccc(C(=O)/C=C/c2ccccc2)cc1.[Br-] | > 128 | 8 | 64 | 16 | 16 | 4 | 64 | 3.1 | > 128 | 16 | 49.6 | 16
CCCCNC(=O)C[N+](C)(C)CCCOc1ccc(/C=C/C(=O)c2ccc(OCCC[N+](C)(C)CC(=O)NCCCC)cc2)cc1.[Br-].[Br-] | 16 | 4 | 32 | 4 | 8 | 2 | > 128 | > 160 | > 128 | 8 | > 1280 | 4
CCCCCC(=O)Nc1cc[n+](CCCOc2ccc(C(=O)/C=C/c3ccccc3)cc2)cc1.[Br-] | > 128 | > 128 | > 128 | 4 | 4 | 2 | > 128 | > 320 | > 128 | 8 | > 1280 | 4
CCCCCCCCCC[N+](C)(C)CCCOc1ccc(/C=C/C(=O)c2ccc(OCCC[N+](C)(C)CCCCCCCCCC)cc2)cc1.[Br-].[Br-] | 8 | 1 | 64 | 2 | 2 | 8 | 128 | 22 | 32 | 2 | 44 | 2
COc1ccc(CC(=O)Nc2cc[n+](CCCOc3ccc(C(=O)/C=C/c4ccccc4)cc3)cc2)cc1.[Br-] | 128 | 128 | 64 | 16 | 8 | 8 | 128 | 90.5 | > 128 | 16 | 724 | 16
CCCCOc1cc[n+](CCCOc2ccc(/C=C/C(=O)c3ccc(OCCC[n+]4ccc(OCCCC)cc4)cc3)cc2)cc1.[Br-].[Br-] | 16 | 1 | 8 | 2 | 4 | 1 | 128 | > 320 | 64 | 0.5 | > 1280 | 1
CCCCCCCCCC(=O)Nc1cc[n+](CCCOc2ccc(C(=O)/C=C/c3ccccc3)cc2)cc1.[Br-] | 32 | 16 | > 128 | 4 | 4 | 4 | 64 | 218 | > 128 | 8 | 871 | 2
CCCCCCCCCC[N+](C)(C)CCCCCCCOc1ccc(C(=O)/C=C/c2ccccc2)cc1.[Br-] | > 128 | 4 | 32 | 8 | 4 | 4 | 128 | 12.6 | > 128 | 8 | 50.5 | 4
CCCCCCCCCC[N+](C)(C)CCCCCOc1ccc(C(=O)/C=C/c2ccccc2)cc1.[Br-] | 64 | 8 | 16 | 4 | 4 | 4 | 16 | 10.5 | > 128 | 4 | 42 | 4
CCCCCCCCCCNC(=O)C[N+](C)(C)CCCOc1ccc(/C=C/C(=O)c2ccc(OCCC[N+](C)(C)CC(=O)NCCCCCCCCCC)cc2)cc1.[Br-].[Br-] | > 128 | 64 | > 128 | 16 | 64 | 32 | 128 | 1 | > 128 | > 128 | 66.1 | 32
CCCCCCCCCCCC[N+](C)(C)CCCCCCCOc1ccc(C(=O)/C=C/c2ccccc2)cc1.[Br-] | > 128 | 16 | > 128 | 64 | 16 | 16 | > 128 | 3 | > 128 | 32 | 47.4 | 16
CCCCCCCCCCCCCC[N+](C)(C)CCCOc1ccc(C(=O)/C=C/c2ccccc2)cc1.[Br-] | > 128 | 16 | 128 | 64 | 32 | 8 | 128 | 9.8 | > 128 | 32 | 39 | 32

— ChEMBL document CHEMBL6092194, “Development of membrane-targeting chalcone derivatives as antibacterial agents against multidrug-resistant bacteria” (Eur J Med Chem, 2024)
